Measurements: patent US20240180149A1, “FIRE ANT BAITS WITH ENHANCED SELECTIVITY” (The United States of America, as represented by the …, priority 2022, published 2024)
“Also recorded” adds a separate entry of the source.

Assays:
thief ants = assay: Two-choice field feeding bioassay on thief ants (soybean oil); assay type: in vivo, Solenopsis molesta
From the text: (§1) Ant feeding bioassays—Multiple-choice and a paired two-choice bioassays were used in this study. An exemplary schematic of the multichoice bioassay field feeding setup is shown in FIG. 1A, and an exemplary schematic of the two-choice bioassay field feeding setup is shown in FIG. 1B. Soybean oil was used as a food source for all the bioassays (Great Value, purchased from Walmart in Greenville Mississippi, USA). The feeding apparatus was a filtered 1-ml pipette tip with the part 0.5 cm below the filter removed. In multiple-choice bioassays, five concentrations of the test compounds were tested with untreated soybean oil as a control, and in two-choice bioassays, the compound at certain concentration was tested against the control oil. Eighty microliter soybean oil was loaded onto each filter. After being weighed, the apparatuses with oil were placed in the field for about 2 hours. The apparatuses were then collected and frozen under −40° C. to kill all ants. The apparatuses were weighed again after all ants were removed from the apparatuses. The difference in the weight of apparatuses before and after the feeding bioassays was the oil consumption. Feeding sites were at least 10 m away from each other for fire ants, and 3 m away for little black ants and for thief ants. The difference in oil consumption among/between treatment and control apparatuses was used to evaluate the effect of tested compound on the feeding of fire ants. For multiple-choice bioassays, a one-way ANOVA was performed to compare the effect of different concentrations of tested compound on the percentage of oil consumption. Tukey's HSD test was used for multiple comparisons. A paired t test was used in statistical analysis for the two-choice bioassays.
(§2) Two choice bioassays—Two-choice bioassays were conducted at six concentrations of trans-solenopsis A in soybean oil, including 6.6, 3.3, 1.7, 0.8, 0.4, and 0.2 mg/g for fire ants and little black ants, and four concentrations for thief ants including 6.6, 3.3, 1.7, and 0.8 mg/g. Feeding sites were selected using blank bait (untreated soybean oil in the feeding apparatuses). Blank baits were placed at the flagged sites for 30 minutes before the bioassay, and active feeding sites then used for the bioassays. Bioassays on fire ants were conducted in open area where most baits were hit by fire ants. Bioassays on little black ants and thief ants were conducted under the bushes, since baits under the bushes had more chances to be hit by little black ants or thief ants.

fire ants [1] = assay: Multiple-choice field feeding bioassay on fire ants (soybean oil); assay type: in vivo, Solenopsis invicta; details: ten concentrations 0.015-6.6 mg/g in soybean oil, two sets (P=0.076; P=0.703), one-way ANOVA
From the text: as §1, with “The difference in oil consumption among/between treatment and control apparatuses was used to evaluate the effect of tested compound on the feeding of fire ants. For multiple-choice bioassays, a one-way ANOVA was performed to compare the effect of different concentrations of tested compound on the percentage of oil consumption. Tukey's HSD test was used for multiple comparisons. A paired t test was used in statistical analysis for the two-choice bioassays.” left out

fire ants [2] = assay: Two-choice field feeding bioassay on fire ants (soybean oil); assay type: in vivo, Solenopsis invicta; details: two-choice vs control oil
From the text: as §1
Two choice bioassays—Two-choice bioassays were conducted at six concentrations of trans-solenopsis A in soybean oil, including 6.6, 3.3, 1.7, 0.8, 0.4, and 0.2 mg/g for fire ants and little black ants, and four concentrations for thief ants including 6.6, 3.3, 1.7, and 0.8 mg/g. […]

little black ants = assay: Two-choice field feeding bioassay on little black ants (soybean oil); assay type: in vivo, Monomorium minimum
From the text: as §1, §2

[3] = two-choice vs control oil, 1.66 mg/g
[4] = two-choice vs control oil, 1.66 mg/g, listed as Trans-solenopsisn A
[5] = two-choice vs control oil, 3.3 mg/g
[6] = two-choice vs control oil, 3.3 mg/g, listed as Trans-solenopsisn A
[7] = two-choice vs control oil, 6.6 mg/g
[8] = two-choice vs control oil, 6.6 mg/g, listed as Trans-solenopsisn A

**Q.** How did the “inhibition of feeding by thief ants on soybean oil” value (thief ants; two-choice vs control oil, 0.80 mg/g, P=0.14) turn out when `CCCCCCCCCCC[C@@H]1CCC[C@@H](C)N1` (relative stereo) [trans-solenopsin A] was run?
**A.** not statistically significant

**Q.** And the “feeding by thief ants on soybean oil” value (thief ants; [3])?
**A.** significantly inhibited the feeding

**Q.** What about the “feeding by thief ants on soybean oil” value (thief ants; [4]) of the same molecule?
**A.** feeding inhibition was significant

**Q.** What about the “feeding by thief ants on soybean oil” value (thief ants; [5]) of the same molecule?
**A.** significantly inhibited the feeding

**Q.** And the “feeding by thief ants on soybean oil” value (thief ants; [6])?
**A.** feeding inhibition was significant

**Q.** And the “feeding by thief ants on soybean oil” value (thief ants; [7])?
**A.** almost completely stopped; also recorded: completely shut down; also recorded: significantly inhibited the feeding

**Q.** And the “feeding by thief ants on soybean oil” value (thief ants; [8])?
**A.** feeding inhibition was significant; also recorded: almost completely inhibited

**Q.** What about the “share of oil consumed by thief ants that was trans-solenopsin A-treated” value (thief ants; two-choice, concentration not restated (previous sentence: 3.3 mg/g)) of the same molecule?
**A.** 1.52%

**Q.** What about the “effect on oil consumption by fire ants” value (fire ants [1]) of the same molecule?
**A.** no significant effect on oil consumption

**Q.** And the “feeding preference of fire ants for soybean oil” value (shortened to “feeding preference of fire ants”) (fire ants [2]; 0.27 mg/g (270 ppm), P=0.049)?
**A.** fed preferentially on oil treated with trans-solenopsin A; also recorded: feed preferentially on soybean oil containing trans-solenopsin A

**Q.** And the “feeding preference of fire ants” value (fire ants [2]; 0.42 mg/g (420 ppm), P=0.0585)?
**A.** fed preferentially on oil treated with trans-solenopsin A; also recorded: feed preferentially on soybean oil containing trans-solenopsin A

**Q.** What about the “feeding preference of fire ants” value (fire ants [2]; 6.6 mg/g (6600 ppm), P=0.39) of the same molecule?
**A.** did not significantly affect the feeding preference

**Q.** What about the “inhibition of feeding by little black ants on soybean oil” value (little black ants; two-choice vs control oil, 0.42 mg/g, P=0.07) of the same molecule?
**A.** very close to be statistically significant

**Q.** What about the “feeding by little black ants on soybean oil” value (little black ants; two-choice vs control oil, 0.83 mg/g) of the same molecule?
**A.** significantly inhibited the feeding

**Q.** What about the “feeding by little black ants on soybean oil” value (little black ants; two-choice vs control oil, 0.83 mg/g, listed as Trans-solenopsisn A) of the same molecule?
**A.** significantly inhibited feeding

**Q.** What about the “feeding by little black ants on soybean oil” value (little black ants; [3]) of the same molecule?
**A.** significantly inhibited the feeding

**Q.** And the “feeding by little black ants on soybean oil” value (little black ants; [4])?
**A.** significantly inhibited feeding

**Q.** What about the “feeding by little black ants on soybean oil” value (little black ants; [5]) of the same molecule?
**A.** significantly inhibited the feeding

**Q.** And the “feeding by little black ants on soybean oil” value (little black ants; [6])?
**A.** significantly inhibited feeding

**Q.** What about the “feeding by little black ants on soybean oil” value (little black ants; [7]) of the same molecule?
**A.** almost completely shut down; also recorded: significantly inhibited the feeding

**Q.** And the “feeding by little black ants on soybean oil” value (little black ants; [8])?
**A.** significantly inhibited feeding; also recorded: almost completely inhibited

**Q.** What about the “concentrations that significantly inhibited feeding by little black ants” value (little black ants; two-choice, paired t test, P<=0.045) of the same molecule?
**A.** > 0.42 mg/g

**Q.** And the “share of oil consumed by little black ants that was trans-solenopsin A treated” value (little black ants; two-choice, 3.3 mg/g)?
**A.** 9.63%
